Measured values taken from US20160022675A1, “PROCESSES FOR PREPARING TETRAHYDROISOQUINOLINES” (BRISTOL-MYERS SQUIBB COMPANY, priority 2013, published 2016).

How the values were obtained:
[1] = biological target: T1, NET (Rattus norvegicus, UniProt Q63380); assay: NET occupancy, rat; assay type: in vivo; conditions: thermogenesis study, all 3 doses (1.0, 3.0, 10 mg/kg)
T1 construct: from tissue; host or cells: rat, in vivo dosing
Description: (§1) To better understand the margin between doses of Compound 1-(4S) that are effective in the mouse tail suspension models and those that lead to monoamine-related side effects, locomotor activity was examined to assess psychostimulant properties and stereotypy was examined to assess more severe DA-related side effects. Increased body temperature, another effect that has been attributed to DA pharmacology, was also studied. In the mouse, Compound 1-(4S) increased locomotor activity and stereotypy scores at doses of 3.0 mg/kg and 10 mg/kg, respectively. Thus, the margin between the Compound 1-(4S) effective dose in the mouse tail suspension and increased locomotor activity was 10-fold and the margin versus activity in stereotypy was 30-fold. The thermogenic effect of Compound 1-(4S) was studied in mice and rats by measuring changes in rectal temperature following administration of the compound. […] The onset of the thermogenesis was earlier as the dose was increased. The levels of SERT and NET occupancy were over 80% and appeared saturated across the doses tested. The DAT occupancy was dose-dependent, with 55±5.7% at 1.0 mg/kg, 74±6% at 3.0 mg/kg, and 83±0.8% at 10 mg/kg. […] The onset of the temperature increase was earlier at the highest dose of 10 mg/kg. […] The DAT occupancy was 37±8.3%, 55±5.2%, and 71±1.7% at 1.0, 3.0, and 10 mg/kg, respectively. […]

[2] = biological target: T2, NET (Homo sapiens, UniProt P23975); assay: [3H]NE uptake into HEK293/hNET cells; assay type: cell-based; set-up: expressed in transfected cells; host or cells: HEK293; conditions: read-out: Norepinephrine reuptake IC50 ([3H]NE uptake)
Description: (§2) Cell-based assays were used to determine the ability of Compound 1-(4S) to inhibit reuptake of 3H-labeled DA ([3H]DA), NE ([3H]NE), and 5-HT ([3H]5-HT).

[3] = Stability; assay type: physicochemical; conditions: with protection from light
[4] = system: rectal temperature; assay: Thermogenic effect (rectal temperature), rat; assay type: in vivo
Description: (§3) To better understand the margin between doses of Compound 1-(4S) that are effective in the mouse tail suspension models and those that lead to monoamine-related side effects, locomotor activity was examined to assess psychostimulant properties and stereotypy was examined to assess more severe DA-related side effects. Increased body temperature, another effect that has been attributed to DA pharmacology, was also studied. In the mouse, Compound 1-(4S) increased locomotor activity and stereotypy scores at doses of 3.0 mg/kg and 10 mg/kg, respectively. Thus, the margin between the Compound 1-(4S) effective dose in the mouse tail suspension and increased locomotor activity was 10-fold and the margin versus activity in stereotypy was 30-fold. The thermogenic effect of Compound 1-(4S) was studied in mice and rats by measuring changes in rectal temperature following administration of the compound. […] The onset of the thermogenesis was earlier as the dose was increased. The levels of SERT and NET occupancy were over 80% and appeared saturated across the doses tested. The DAT occupancy was dose-dependent, with 55±5.7% at 1.0 mg/kg, 74±6% at 3.0 mg/kg, and 83±0.8% at 10 mg/kg. […] The onset of the temperature increase was earlier at the highest dose of 10 mg/kg. […] The DAT occupancy was 37±8.3%, 55±5.2%, and 71±1.7% at 1.0, 3.0, and 10 mg/kg, respectively. Consistent with data obtained with mice, the thermogenic effect of Compound 1-(4S) is dose dependently related to DAT occupancy and at least 50% DAT occupancy is needed for this effect.

[5] = biological target: SERT (Homo sapiens, UniProt P31645); assay: [3H]5-HT uptake into HEK293/hSERT cells; assay type: cell-based; set-up: expressed in transfected cells; host or cells: HEK293; conditions: read-out: Serotonin reuptake IC50 ([3H]5-HT uptake)
Description: as §2

[6] = system: mouse tail suspension model of depression; assay: Mouse tail suspension model of depression; assay type: in vivo; conditions: PO
Protocol: (§4) The effects of Compound 1-(4S) in the mouse tail suspension model of depression and target site occupancy were assessed to compare occupancies associated with the behavioral response. The mouse tail suspension model is known the art. […] The lowest effective dose of Compound 1-(4S), 0.3 mg/kg, PO, decreased immobility by 77% relative to vehicle-treated controls. […] Administration of Compound 1-(4S) led to dose-dependent occupancy of SERT, NET, and DAT binding sites in the brain. At the lowest behaviorally-effective dose (0.3 mg/kg), occupancies were 86±1% of SERT, 76±3% of NET, and 28±3% of DAT. At 1 mg/kg, occupancies were 89±1%, 82±1% and 54±3% at SERT, NET, and DAT, respectively. Pharmacokinetics and pharmacodynamics (PD) in mouse, rat, and dog focused primarily on DAT occupancy since SERT and NET occupancies were saturated by drug for most, if not all, of the times studied. DAT occupancy increased as a function of increasing plasma exposure. The DAT occupancy to total plasma level could be fitted using a single binding site model and plasma level ED50 (the dose producing 50% effect) values could be calculated.

[7] = Solubility profile (USP definition) in solvents; assay type: physicochemical
[8] = Distribution coefficient; assay type: physicochemical
[9] = system: locomotor activity; assay: Locomotor activity, mouse; assay type: in vivo
Description: as §1

[10] = system: stereotypy; assay: Stereotypy, mouse; assay type: in vivo
Description: as §1

[11] = Solution pH; assay type: physicochemical; conditions: at about 1 μg/mL concentration in water
[12] = biological target: T2, NET; assay: Competition binding, membranes from HEK cells overexpressing NET; set-up: expressed in transfected cells; host or cells: HEK cells (membranes); conditions: radioligand at Kd concentration; HEK cell membranes
Protocol: Competition binding experiments were performed to determine the in vitro binding potencies (IC50 values) of Compound 1-(4S) for SERT, DAT, and NET. Membranes prepared from human embryonic kidney (HEK) cells overexpressing each transporter were employed. Radioligands were used at their respective affinity constant (Kd) concentrations for each transporter to enable direct comparisons of the IC50 values between assays.

[13] = biological target: T3, SERT (Rattus norvegicus, UniProt P31652); assay: SERT occupancy, rat; assay type: in vivo; conditions: thermogenesis study, all 3 doses (1.0, 3.0, 10 mg/kg)
T3 construct: from tissue; host or cells: rat, in vivo dosing
Description: as §1

[14] = biological target: T4, DAT (Rattus norvegicus, UniProt P23977); assay: DAT occupancy, rat; assay type: in vivo
T4 construct: from tissue; host or cells: rat, in vivo dosing
Protocol: as §4, §3

[15] = pH-Solubility profile (aqueous); assay type: physicochemical; conditions: aqueous solution, aqueous buffer; solution pH 6.5 and above
[16] = biological target: T5, DAT (Mus musculus, UniProt Q61327); assay: DAT occupancy in the brain, mouse; assay type: in vivo
T5 construct: from tissue; host or cells: mouse brain
Protocol: as §4, §3

[17] = single binding site model, read-out: total plasma concentration producing 50% effect (EC50), DAT occupancy

T5 sequence (Q61327 whole entry): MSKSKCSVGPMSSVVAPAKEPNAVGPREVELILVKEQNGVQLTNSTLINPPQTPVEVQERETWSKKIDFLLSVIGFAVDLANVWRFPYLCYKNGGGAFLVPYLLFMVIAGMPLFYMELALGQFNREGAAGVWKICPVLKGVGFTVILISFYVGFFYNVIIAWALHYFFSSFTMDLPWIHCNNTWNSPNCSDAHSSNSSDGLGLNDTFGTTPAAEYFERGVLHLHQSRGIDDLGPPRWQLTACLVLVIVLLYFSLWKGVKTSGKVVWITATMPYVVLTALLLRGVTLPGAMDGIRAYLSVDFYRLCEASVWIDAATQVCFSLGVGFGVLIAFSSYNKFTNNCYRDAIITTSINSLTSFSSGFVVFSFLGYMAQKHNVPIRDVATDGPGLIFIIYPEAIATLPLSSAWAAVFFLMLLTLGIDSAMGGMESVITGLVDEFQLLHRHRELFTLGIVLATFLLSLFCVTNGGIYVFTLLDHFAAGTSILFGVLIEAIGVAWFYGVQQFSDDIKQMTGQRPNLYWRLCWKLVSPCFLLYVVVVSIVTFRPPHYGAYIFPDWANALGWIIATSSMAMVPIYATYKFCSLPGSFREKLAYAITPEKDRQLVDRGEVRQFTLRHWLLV
T4 sequence (P23977 whole entry): as the sequence (Q61327 whole entry) above, with P21S, V57A, S194A, R600H, V619L counted along it
T2 sequence (P23975 whole entry): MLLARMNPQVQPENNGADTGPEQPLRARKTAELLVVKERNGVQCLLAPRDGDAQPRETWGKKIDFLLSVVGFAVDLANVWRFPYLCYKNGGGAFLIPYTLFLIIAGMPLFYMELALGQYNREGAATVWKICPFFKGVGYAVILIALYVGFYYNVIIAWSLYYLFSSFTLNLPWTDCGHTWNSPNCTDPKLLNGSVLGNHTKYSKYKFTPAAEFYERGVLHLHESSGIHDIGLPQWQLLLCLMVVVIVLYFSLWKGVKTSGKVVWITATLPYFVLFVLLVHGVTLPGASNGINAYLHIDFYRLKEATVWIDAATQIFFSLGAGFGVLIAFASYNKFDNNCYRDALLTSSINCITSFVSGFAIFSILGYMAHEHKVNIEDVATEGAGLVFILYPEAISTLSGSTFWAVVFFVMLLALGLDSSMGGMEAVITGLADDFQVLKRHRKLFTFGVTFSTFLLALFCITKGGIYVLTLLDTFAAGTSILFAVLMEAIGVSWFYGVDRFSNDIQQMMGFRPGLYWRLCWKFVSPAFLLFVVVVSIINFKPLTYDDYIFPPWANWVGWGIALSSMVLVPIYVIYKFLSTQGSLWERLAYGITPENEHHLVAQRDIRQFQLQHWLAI
Sequence of SERT (Homo sapiens, UniProt P31645) (P31645 whole entry): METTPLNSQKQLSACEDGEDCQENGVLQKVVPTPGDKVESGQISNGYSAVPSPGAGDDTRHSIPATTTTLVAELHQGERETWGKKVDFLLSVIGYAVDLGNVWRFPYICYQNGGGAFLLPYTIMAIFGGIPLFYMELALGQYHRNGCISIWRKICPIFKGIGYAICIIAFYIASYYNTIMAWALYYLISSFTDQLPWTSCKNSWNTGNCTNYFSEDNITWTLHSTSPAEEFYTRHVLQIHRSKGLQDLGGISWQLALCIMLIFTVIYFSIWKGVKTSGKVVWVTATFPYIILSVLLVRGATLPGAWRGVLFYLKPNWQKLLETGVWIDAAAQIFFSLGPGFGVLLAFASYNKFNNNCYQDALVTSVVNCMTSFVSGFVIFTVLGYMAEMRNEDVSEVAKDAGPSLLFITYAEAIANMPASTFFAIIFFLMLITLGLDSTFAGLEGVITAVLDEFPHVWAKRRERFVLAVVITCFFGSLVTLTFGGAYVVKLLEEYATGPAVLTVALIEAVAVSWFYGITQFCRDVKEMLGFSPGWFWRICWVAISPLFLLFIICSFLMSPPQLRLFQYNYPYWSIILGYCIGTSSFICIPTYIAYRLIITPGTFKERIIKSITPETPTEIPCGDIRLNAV
T1 sequence (Q63380 1-617): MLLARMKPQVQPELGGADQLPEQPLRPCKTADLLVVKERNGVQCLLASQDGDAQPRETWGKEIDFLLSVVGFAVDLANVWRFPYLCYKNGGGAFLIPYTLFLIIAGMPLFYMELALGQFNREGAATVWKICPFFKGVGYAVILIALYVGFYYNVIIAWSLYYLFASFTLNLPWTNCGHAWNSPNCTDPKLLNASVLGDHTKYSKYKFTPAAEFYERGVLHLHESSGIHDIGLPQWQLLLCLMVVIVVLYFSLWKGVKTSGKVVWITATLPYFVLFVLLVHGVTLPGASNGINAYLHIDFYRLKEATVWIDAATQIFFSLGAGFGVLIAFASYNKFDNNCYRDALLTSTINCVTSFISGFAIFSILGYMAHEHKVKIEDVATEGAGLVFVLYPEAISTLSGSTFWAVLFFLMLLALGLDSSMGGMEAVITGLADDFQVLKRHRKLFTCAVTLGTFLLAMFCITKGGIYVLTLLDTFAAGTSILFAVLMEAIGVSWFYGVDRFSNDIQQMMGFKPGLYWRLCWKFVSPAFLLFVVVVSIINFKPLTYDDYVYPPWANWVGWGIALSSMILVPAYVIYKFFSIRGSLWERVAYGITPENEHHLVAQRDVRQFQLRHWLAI
T3 sequence (P31652 whole entry): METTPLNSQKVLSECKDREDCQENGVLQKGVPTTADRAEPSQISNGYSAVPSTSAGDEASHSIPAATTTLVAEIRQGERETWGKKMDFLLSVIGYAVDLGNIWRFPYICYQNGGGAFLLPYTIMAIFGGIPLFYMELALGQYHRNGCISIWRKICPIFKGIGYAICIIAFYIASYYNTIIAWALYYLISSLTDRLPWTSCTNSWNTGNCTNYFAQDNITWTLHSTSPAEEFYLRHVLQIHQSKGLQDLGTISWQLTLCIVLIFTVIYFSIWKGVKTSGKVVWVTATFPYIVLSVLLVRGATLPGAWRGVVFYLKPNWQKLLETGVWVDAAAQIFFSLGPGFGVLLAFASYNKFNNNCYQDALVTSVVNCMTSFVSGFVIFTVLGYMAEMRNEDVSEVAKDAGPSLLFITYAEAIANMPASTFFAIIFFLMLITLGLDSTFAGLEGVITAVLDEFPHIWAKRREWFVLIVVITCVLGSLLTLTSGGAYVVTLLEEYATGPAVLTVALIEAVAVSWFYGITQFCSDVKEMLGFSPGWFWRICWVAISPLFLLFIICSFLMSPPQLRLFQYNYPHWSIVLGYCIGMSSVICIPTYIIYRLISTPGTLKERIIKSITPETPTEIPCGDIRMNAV

CN1Cc2cc(-c3ccc(N)nn3)ccc2[C@H](c2ccc3ccccc3c2)C1 [Compound 1-(4S), 6-[(4S)-1,2,3,4-tetrahydro-2-methyl-4-(2-naphthalenyl)-7-isoquinolinyl]-3-pyridazinamine]
NET occupancy [1]: nearly saturated
IC50 [2]: 37.5 ± 2.5 nM
Stability [3]: Compound 1-(4S) is stable up to 25 °C with protection
significant increase in rectal temperature ([4]; rat, 1.0 mg/kg): not
change in rectal temperature ([4]; rat, doses of 3.0 and 10 mg/kg): Significant increases
DAT occupancy needed for the thermogenic effect ([4]; rats, consistent with mice): at least 50%
IC50 [5]: 18.5 ± 5.5 nM
decrease in immobility relative to vehicle-treated controls ([6]; 0.3 mg/kg): 77%
decrease in immobility ([6]; 1.0 mg/kg): 91%
lowest effective dose, tail suspension [6]: 0.3 mg/kg
Solubility profile (USP definition) ([7]; N,N-dimethylacetamide, dimethylsulfoxide): soluble: N,N-dimethylacetamide, dimethylsulfoxide
Solubility profile (USP definition) ([7]; PEG 400): sparingly soluble: PEG 400
Solubility profile (USP definition) ([7]; acetonitrile, ethyl acetate, n-butanol): very slightly soluble: acetonitrile, ethyl acetate,
Solubility profile (USP definition) ([7]; isopropanol, acetone, ethanol, methanol, propylene glycol, dichloromethane): slightly soluble: isopropanol, acetone, ethanol,
Solubility profile (USP definition) ([7]; n-heptane): practically insoluble: n-heptane
Solubility profile (USP definition) ([7]; tetrahydrofuran): freely soluble: tetrahydrofuran
Distribution coefficient Log Do/b ([8]; pH 6.5): 3.10
Distribution coefficient Log Do/b ([8]; pH 7.4): 3.82
dose that increased locomotor activity [9]: 3.0 mg/kg
margin between effective dose in mouse tail suspension and increased locomotor activity [9]: 10 fold
dose that increased stereotypy scores [10]: 10 mg/kg
margin between effective dose in mouse tail suspension and activity in stereotypy [10]: 30 fold
Solution pH [11]: ~7.0 at about 1 μg/mL concentration in water
IC50 [12]: 7.99 ± 0.43 nM
SERT occupancy [13]: nearly saturated
EC50 [14, 17]: 47 nM
receptor occupancy at 1 mg/kg ([14]; thermogenesis study, 1.0 mg/kg): 37 ± 8.3%
receptor occupancy at 3 mg/kg ([14]; thermogenesis study, 3.0 mg/kg): 55 ± 5.2%
receptor occupancy at 10 mg/kg ([14]; thermogenesis study, 10 mg/kg): 71 ± 1.7%
solubility [15]: ≤ 1 µg/mL
receptor occupancy at 0.3 mg/kg ([16]; mouse brain, 0.3 mg/kg, tail suspension study): 28 ± 3%
receptor occupancy at 1 mg/kg ([16]; mouse brain, 1 mg/kg, tail suspension study): 54 ± 3%
EC50 [16, 17]: 1190 nM
receptor occupancy at 1 mg/kg ([16]; thermogenesis study, 1.0 mg/kg): 55 ± 5.7%
receptor occupancy at 3 mg/kg ([16]; thermogenesis study, 3.0 mg/kg): 74 ± 6%
receptor occupancy at 10 mg/kg ([16]; thermogenesis study, 10 mg/kg): 83 ± 0.8%
